The source made the active and inactive calls. The rule behind the calls is not given here.
Assays:
[1] = Effect on locomotor activity in BALB/c mouse assessed as reduction in time spent in rotarod at <25 mg/kg, po by rotarod test; type: ADME, organism-based; conditions: in vivo
[2] = system: Mus musculus; test: Anxiolytic activity in BALB/c mouse at 7.7 mg/kg, po after 5 mins in presence of 1 mg/kg yohimbine by cylinder exploratory test; type: functional, organism-based
[3] = system: Mus musculus; test: Anxiolytic activity in BALB/c mouse at 7.7 mg/kg, po after 5 mins in presence of GABAA receptor antagonist 0.7 mg/kg bicuculline by cylinder exploratory test; type: functional, organism-based
[4] = Effect on locomotor activity in BALB/c mouse assessed as reduction in time spent in rotarod at 100 mg/kg, po measured after 1 hr post treatment by rotarod test; type: ADME, organism-based; conditions: in vivo
[5] = system: Mus musculus; test: Anxiolytic activity in BALB/c mouse at 25 mg/kg, po administered 1 hr prior to experiment by cylinder exploratory test relative to control; type: functional
[6] = system: Mus musculus; test: Anxiolytic activity in BALB/c mouse at 7.7 mg/kg, po after 5 mins in presence of 1 mg/kg ketanserin by cylinder exploratory test; type: functional, organism-based
[7] = system: Mus musculus; test: Anxiolytic activity in BALB/c mouse assessed as reduction in anxiety like behaviour administered orally 1 hr prior to experiment by cylinder exploratory test; type: functional; conditions: for ED50: po
[8] = system: Mus musculus; test: Anxiolytic activity in BALB/c mouse at 3.3 mg/kg, po after 5 mins in presence of 1 mg/kg yohimbine by cylinder exploratory test; type: functional, organism-based
[9] = system: Mus musculus; test: Anxiolytic activity in BALB/c mouse at 3.3 mg/kg, po after 5 mins in presence of 1 mg/kg ketanserin by cylinder exploratory test; type: functional, organism-based
[10] = system: Mus musculus; test: Anxiolytic activity in BALB/c mouse at 3.3 mg/kg, po after 5 mins in presence of GABAA receptor antagonist 0.7 mg/kg bicuculline by cylinder exploratory test; type: functional, organism-based

SMILES | Activity [1] | Activity [2] | Activity [3] | Activity [4] | Activity [5] [%] | Activity [6] | Activity [7] | ED50 [7] [mg/kg] | Activity [8] | Activity [9] | Activity [10]
CCOC(=O)[C@]1(C#N)[C@@H](c2ccccc2)Cc2c(c3ccccc3n2Cc2ccccc2)[C@@H]1CC=O | Non-Toxic | Active | inactive | Toxic | 83.4 | Active | Dose-dependent effect | 7.7 |  |  | 
CCOC(=O)[C@]1(C#N)[C@@H](c2ccccc2)Cc2c(c3ccccc3n2C(=O)OC(C)(C)C)[C@@H]1CC=O | Non-Toxic |  |  |  | 72 |  | Dose-dependent effect | 3.3 | Active | Active | inactive

— ChEMBL document CHEMBL4627321, “Enantioselective synthesis of tetrahydrocarbazoles via trienamine catalysis and their anxiolytic-like activity” (Bioorg Med Chem Lett, 2020)
